Data taken from article PMC10447463, “Data-mining unveils structure–property–activity correlation of viral infectivity enhancing self-assembling peptides” (Nature Communications, 2023).
Read-outs that look alike come from different tables or passages of the source.

Tests used:
[1] = β-sheet content by ATR-FT-IR; format: physicochemical
Method in brief: (§1)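 1 mg/mL PNF solutions lyophilized and powders measured by diamond ATR FT-IR (2 cm^-1 resolution, 64 scans); β-sheet content calculated per a prior method. For CR, PNF solution centrifuged through 3 kDa MWCO filter (16200 x g, 4 °C, 45 min); filtrate and unfiltered sample lyophilized, dissolved in DMSO, reacted with fluorescamine.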

[2] = Conversion rate (CR) assay with fluorescamine; format: physicochemical
Method in brief: as §1

[3] = Aggregate analysis by widefield fluorescence microscopy; format: physicochemical
Method in brief: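 Peptides diluted from 10 mg/mL DMSO stock to 1 mg/mL in PBS and aged 1 d at RT were diluted to 0.1 mg/mL with 50 µM ThT, then imaged with a 10x objective in fluorescence (ex 480/40, em 527/30 nm) and brightfield. Particles >10 µm^2 were counted by automated object counting over ≥3 images.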

[4] = previously reported peptides only; ref sieste 2021 or Schilling2019; cited from earlier work
Source text: Supplement 41467_2023_40663_MOESM7_ESM.zip/FigS17.csv, table | column: Conversion Rate / % ( from sieste 2021 or Schilling2019)

[5] = Fig S8 panels A, C, 3 fields of 1330 µm x 1330 µm
[6] = Fig S8 panels B, D, average aggregate area, 3 fields of 1330 µm x 1330 µm
[7] = Fig S8 panels B, D, median aggregate area, 3 fields of 1330 µm x 1330 µm
[8] = Fig S8 panels B, D, 3 fields of 1330 µm x 1330 µm
[9] = Fig S8 panels B, D, widefield fluorescence microscopy, 3 fields of 1330 µm x 1330 µm

Substance | FTIR ß-sheet content/ % ([1]; ATR-FT-IR) [%] | Conversion Rate / % ([2]; fluorescamine assay) [%] | Avg Area in 3 *(1330 µm *1330 µm) ([3]; Fig S8 panels A, C) | Log 10 Number of aggregates in 3 * (1330 µm *1330 µm) ([3]; Fig S8 panels A, C) | Median Area in 3 * (1330 µm *1330 µm) ([3]; Fig S8 panels A, C) | log Avg Area in 3 * ( (1330 µm *1330 µm)) ([3]; Fig S8 panels A, C) | log Median Area in 3 * ( (1330 µm *1330 µm)) ([3]; Fig S8 panels A, C) | log Total Area of all particles in 3 * (1330 µm *1330 µm) ([3]; Fig S8 panels A, C) | Number of aggregates in 3 * (1330 µm *1330 µm) [3, 5] | Avg Area in 3 *(1330 µm *1330 µm) [3, 6] | Median Area in 3 * (1330 µm *1330 µm) [3, 7] | Total Area of all particles in 3 * (1330 µm *1330 µm) [3, 8] | Number of aggregates in 3 * (1330 µm *1330 µm) [3, 9] | FTIR ß-sheet content/ % [1] [%] | Conversion Rate / % [2] [%] | Conversion Rate / % ( from sieste 2021 or Schilling2019) [4] [%]
RGEKIKIQINM [CN18] | 43.05 | 80.28 |  |  |  |  |  |  |  |  |  |  |  |  |  | 
HHHHKIKIQINMYYYY [TM16] | 46.73 | 98.42 | 97.09 | 2.3686 | 27.74 | 1.987 | 1.443 | 4.356 | 233.7 | 97.09 | 27.74 | 22686.609 | 233.7 |  |  | 
EIEIQINMWQ [VH8] |  |  |  |  |  |  |  |  |  |  |  |  |  | 53.91 | 89.92 | 
HIHIQIC [CN12] | 48.25 | 82.72 | 747.6 | 1.523 | 85.979 | 2.874 | 1.934 | 4.397 | 33.33 | 747.6 | 85.979 | 24920.46633 | 33.33 |  |  | 
KIKQIIN [JGA3] |  |  | 51.51 | 1.067 | 15.7 | 1.712 | 1.196 | 2.779 | 11.67 | 51.51 | 15.7 | 600.94 | 11.67 |  |  | 
RGDSGGGGGGKIKIQIC [TM114 / RC17] |  |  | 372.8 | 1.857 | 53.0945 | 2.572 | 1.725 | 4.429 | 72 | 372.8 | 53.0945 | 26843.97667 | 72 |  |  | 
RGECKFKFQF [CN16] | 46.18 | 98.71 |  |  |  |  |  |  |  |  |  |  |  |  |  | 
KIKIQIII [TG7] |  |  |  |  |  |  |  |  |  |  |  |  |  |  |  | 87
HLHLPLL [CN14] | 49.19 | 37.51 |  |  |  |  |  |  |  |  |  |  |  |  |  | 
RLRLTLC [CN13] | 20.69 | 87.44 |  |  |  |  |  |  |  |  |  |  |  |  |  | 
KIKIQIN [JGB3] |  |  | 197.4 | 0.6021 | 197.8005 | 2.295 | 2.296 | 2.897 | 4 | 197.4 | 197.8005 | 789.7 | 4 |  |  | 
EIEIQINM [TM95 / (TM75)] |  |  |  |  |  |  |  |  |  |  |  |  |  | 53.87 | 79.85 | 
RGDKIKIQINM [MG8a / CN17] | 45.52 | 73.83 |  |  |  |  |  |  |  |  |  |  |  | 45.52 | 73.83 | 48
KFKFQFFF [TG12] | 49.11 | 97.92 |  |  |  |  |  |  |  |  |  |  |  | 49.11 | 97.92 | 99
